In patent US8202996B2, “Crystalline forms of N-(tert-butoxycarbonyl)-3-methyl-L-valyl-(4R)-4-((7-chloro-4-methoxy-1-isoquinolinyl)oxy)-N- ((1R,2S)-1-((cyclopropylsulfonyl)carbamoyl)-2-vinylcyclopropyl)-L-prolinamide” (Bristol-Myers Squibb Company, priority 2007, dated 2012):

Tests used:
[1] = Crystal form in aqueous solution / suspension in water; format: physicochemical; conditions: aqueous solutions / suspended in water
[2] = Interconversion of Forms H-1 and T1F-1/2 as a function of relative humidity; format: physicochemical; conditions: solid state, FIG. 1

SMILES	form stability in water [1]	relative humidity at which Compound (I) exists as this crystalline form [2] [% relative humidity]	relative humidity at which Compound (I) exists as a mixture of H-1 and T1F-1/2 [2]
C=C[C@@H]1C[C@]1(NC(=O)[C@@H]1C[C@@H](Oc2ncc(OC)c3ccc(Cl)cc23)CN1C(=O)[C@@H](NC(=O)OC(C)(C)C)C(C)(C)C)C(=O)NS(=O)(=O)C1CC1 [Form T1F-1/2, N-(tert-butoxycarbonyl)-3-methyl-L-valyl-(4R)-4-((7-chloro-4-methoxy-1-isoquinolinyl)oxy)-N-((1R,2S)-1-((cyclopropylsulfonyl)carbamoyl)-2-vinylcyclopropyl)-L-prolinamide]	rapidly converts to H-1	< 15	
C=C[C@@H]1C[C@]1(NC(=O)[C@@H]1C[C@@H](Oc2ncc(OC)c3ccc(Cl)cc23)CN1C(=O)[C@@H](NC(=O)OC(C)(C)C)C(C)(C)C)C(=O)NS(=O)(=O)C1CC1 [Compound (I), N-(tert-butoxycarbonyl)-3-methyl-L-valyl-(4R)-4-((7-chloro-4-methoxy-1-isoquinolinyl)oxy)-N-((1R,2S)-1-((cyclopropylsulfonyl)carbamoyl)-2-vinylcyclopropyl)-L-prolinamide]	exists as H-1		15-45 % relative humidity
C=C[C@@H]1C[C@]1(NC(=O)[C@@H]1C[C@@H](Oc2ncc(OC)c3ccc(Cl)cc23)CN1C(=O)[C@@H](NC(=O)OC(C)(C)C)C(C)(C)C)C(=O)NS(=O)(=O)C1CC1 [Form H-1, N-(tert-butoxycarbonyl)-3-methyl-L-valyl-(4R)-4-((7-chloro-4-methoxy-1-isoquinolinyl)oxy)-N-((1R,2S)-1-((cyclopropylsulfonyl)carbamoyl)-2-vinylcyclopropyl)-L-prolinamide]		> 45	
